Drawing on US5389638A, “Tetrahydroisoquinolines as alpha-2 antagonists and biogenic amine uptake inhibitors” (Abbott Laboratories, priority 1993, dated 1995), this text covers Ki, Alpha-2 selectivity Ki α1/Ki α2 and IC50 for 15 compounds.

One assay has as its target alpha-2 receptor. Put plainly: alpha-2 receptor radioligand binding, rat cerebral cortices, [3H]-rauwolscine. To be noted: for Ki: rat cerebral cortices, [3H]-rauwolscine, read-out: Radioligand binding Ki α2; for Alpha-2 selectivity Ki α1/Ki α2: ratio Ki α1/Ki α2.
Another assay relates to norepinephrine uptake. Put plainly: inhibition of [3H]-amine uptake by synaptosome preparations, hypothalamus (norepinephrine). The assay is classed as biochemical, rat (male Sprague-Dawley). To be noted: hypothalamus synaptosomes, [3H]-amine approx. 100 nM, 4 min, 37° C.; read-out: Biogenic amine uptake IC50 NE. The text has this:
(§1) The primary method of evaluation of biogenic amine uptake activity has been the in vitro determination of the inhibition of radioactive amine uptake by synaptosome preparations of brain tissue. Basic procedures used are those described by Snyder and Coyle (Snyder, S. H. and J. T. Coyle, Regional Differences in ^3 H-Norepinephrine and ^3 H-Dopamine Uptake into Rat Brain Homogenates, Journal of Pharmacology and Experimental Therapeutics 1969, 165: 78-86) and Wong et al. (Wong, D. T., J-S. Horng and R. W. Fuller, Kinetics of Norepinephrine Accumulation into Synaptosomes of Rat Brain-Effects of Amphetamine and Chloroamphetamines, Biochemical Pharmacology 1973, 22:311-322). Briefly, male Sprague-Dawley rats were decapitated and regions of their brains dissected according to the procedures of Glowinski and Iversen (Glowinski, J. and L. L. Iversen, Regional Studies of Catecholamines in the Rat Brain--I: The Disposition of [^3 H]-Norepinephrine, [^3 H]-Dopamine and [^3 H]-DOPA in Various Regions of the Brain, Journal of Neurochemistry 1966, 13: 655-669). Hypothalamus (norepinephrine-), cortex (serotonin) and striatum (dopamine-uptake) were homogenized in 10, 5, and 20 volumes, respectively,of 0.32M sucrose using a Teflon/glass Potter-Elvehjem tissue grinder. Samples were centrifuged at 1000×G for 10 minutes and the supernatants harvested and used in the assay. Aliquots of tissue ([…]) were added to 750 mL of Kreb's solution (composition in mM; sodium chloride 118, potassium chloride 4.0, calcium chloride 1.13, potassium dihydrogen phosphate 1.12, magnesium sulfate 1.20, sodium bicarbonate 2.4, D-glucose 5.0, disodium ethylenediaminetetraacetic acid 1.5, ascorbic acid 1.0, and Pargyline, 12.5 mM, pH=7.4, aerated with 95% oxygen, 5% carbon dioxide), 50 mL of test compound diluted in 0.3 mM ascorbic acid, and […] [^3 H]-amine, final concentration approximately 100 nM. Tissues were incubated for 4 minutes at 37° C., followed by rapid vacuum filtration over Whatman GF/B filters and washed with 50 mM Tris-HCl (pH=7.4). Nonspecific uptake was estimated in duplicate samples incubated at 0 ° C. Data were analyzed as described previously (J. F. DeBemardis, D. J. Kerkman, D. L. Arendsen, S. A. Buckner, J. J. Kyncl, and A. A. Hancock, Conformationally Defined Adrenergic Agents. 5. Resolution, Absolute Configuration, and Pharmacological Characterization of the Enantiomers of 2-[5,6-Dihyroxy-1,2,3,4-tetrahydro-1-1-naphthyl]imidazoline: A Potent Agonist at a-Adrenoceptors, Journal of Medicinal Chemistry 1987, 30: 1011-1017).

The test system of another assay is serotonin (5-HT) uptake. Put plainly: inhibition of [3H]-amine uptake by synaptosome preparations, cortex (serotonin). The assay is classed as biochemical, rat (male Sprague-Dawley). To be noted: cortex synaptosomes, [3H]-amine approx. 100 nM, 4 min, 37° C.; read-out: Biogenic amine uptake IC50 5-HT.
Source text: as §1

The next assay relates to dopamine uptake. Put plainly: inhibition of [3H]-amine uptake by synaptosome preparations, striatum (dopamine). The assay is classed as biochemical, rat (male Sprague-Dawley). The conditions noted are these: striatum synaptosomes, [3H]-amine approx. 100 nM, 4 min, 37° C.; read-out: Biogenic amine uptake IC50 DA.
Source text: as §1

The next assay deals with T1, alpha-1 receptor (Rattus norvegicus, UniProt P15823).
T1 sequence (P15823 1-515): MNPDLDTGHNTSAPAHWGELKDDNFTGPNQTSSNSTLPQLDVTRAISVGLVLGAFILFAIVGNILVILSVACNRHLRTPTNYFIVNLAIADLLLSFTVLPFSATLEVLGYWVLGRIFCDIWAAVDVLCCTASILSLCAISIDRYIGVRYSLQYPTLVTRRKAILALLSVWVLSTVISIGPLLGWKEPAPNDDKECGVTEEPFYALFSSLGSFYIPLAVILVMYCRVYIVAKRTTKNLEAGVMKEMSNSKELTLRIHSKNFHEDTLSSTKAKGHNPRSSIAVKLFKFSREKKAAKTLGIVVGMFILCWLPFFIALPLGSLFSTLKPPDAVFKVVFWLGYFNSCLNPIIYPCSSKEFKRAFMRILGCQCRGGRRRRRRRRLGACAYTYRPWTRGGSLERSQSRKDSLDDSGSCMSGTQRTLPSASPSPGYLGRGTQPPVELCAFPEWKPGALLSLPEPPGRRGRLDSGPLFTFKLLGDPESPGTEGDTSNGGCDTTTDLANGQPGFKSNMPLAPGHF
Put plainly: alpha-1 receptor radioligand binding, rat liver homogenates, [3H]-prazosin.

Structures can show the parent of a compound that is named as a salt. Where two headings read alike, the source gives them in different places.

As to `COc1ccc2c(c1)CCN(C)C2CN1CCC(c2ccccc2)C1` (stereo not shown) [Example 1, 6-Methoxy-2-methyl-1-(3-phenylpyrrolidino)methyl-1,2,3,4-tetrahydroisoquinoline dihydrochloride], the figures for the Ki at alpha-2 receptor and on alpha-1 receptor were 6.2 nM and 120 nM, respectively. In addition, the Alpha-2 selectivity Ki α1/Ki α2 in the assay on alpha-2 receptor worked out at 19. The values for the half-inhibitory concentration (IC50) with norepinephrine uptake, in the assay on serotonin (5-HT) uptake and with dopamine uptake were 4430 nM, 9180 nM and 28300 nM, respectively.

As for `COc1ccc2c(c1)CCN(C)C2CN(C)CCc1ccccc1` (stereo not shown) [Example 2, 6-Methoxy-2-methyl-1-((N-methyl-N-(2-phenylethyl)amino)methyl)-1,2,3,4-tetrahydroisoquinoline dihydrochloride], the Ki on alpha-2 receptor amounted to 4.6 nM; on alpha-1 receptor it was 175 nM. Also, the Alpha-2 selectivity Ki α1/Ki α2 in the assay with alpha-2 receptor is 38. Also, the IC50 came to 1240 nM in the assay on norepinephrine uptake, 7710 nM in the assay on serotonin (5-HT) uptake and 26500 nM in the assay with dopamine uptake.

Take `COc1cccc2c1CCN(C)C2CN1CCC(c2ccccc2)C1` (stereo not shown) [Example 3, 5-Methoxy-2-methyl-1-(3-phenylpyrrolidino)methyl-1,2,3,4-tetrahydroisoquinoline dihydrochloride]: the Ki on alpha-2 receptor was found to be 6 nM; at alpha-1 receptor, 306 nM. In addition, in the assay on alpha-2 receptor, the Alpha-2 selectivity Ki α1/Ki α2 was 51. Moreover, the 50% inhibitory concentration (IC50) in the assay on norepinephrine uptake stood at 621 nM; with serotonin (5-HT) uptake it was 4450 nM; in the assay with dopamine uptake, 9400 nM.

In the case of `CN(CCc1ccccc1)CC1c2ccc3c(c2CCN1C)OCO3` (stereo not shown) [Example 4, 5,6-Methylenedioxy-2-methyl-1-((N-methyl-N-(2-phenylethyl)amino)methyl)-1,2,3,4-tetrahydroisoquinoline dihydrochloride], the figures for the Ki at alpha-2 receptor and at alpha-1 receptor were 2.6 nM and 621 nM, respectively. Moreover, the Alpha-2 selectivity Ki α1/Ki α2 in the assay with alpha-2 receptor turned out to be 238. In addition, the IC50 in the assay with norepinephrine uptake is 885 nM; in the assay on serotonin (5-HT) uptake, 2600 nM; with dopamine uptake, 24700 nM.

`CN1CCc2c(ccc3c2OCO3)C1CN1CCC(c2ccccc2)C1` (stereo not shown) [Example 5, 5,6-Methylenedioxy-2-methyl-1-N-(3-phenylpyrrolinodino)methyl-1,2,3,4-tetrahydroisoquinoline dihydrochloride]: the Ki was 4.3 nM at alpha-2 receptor and 180 nM at alpha-1 receptor. For the same compound, the Alpha-2 selectivity Ki α1/Ki α2 with alpha-2 receptor was 42. In addition, the IC50 with norepinephrine uptake was determined as 249 nM; in the assay with serotonin (5-HT) uptake it was 2030 nM; in the assay on dopamine uptake it was 11400 nM.

`CN1CCc2cc3c(cc2C1CN1CCC(c2ccccc2)C1)OCO3` (stereo not shown) [Example 6, 6,7-Methylenedioxy-2-methyl-1-(3-phenylpyrrolidino)methyl-1,2,3,4-tetrahydroisoquinoline dimethanesulfonate]: on alpha-2 receptor, the Ki is 11.4 nM and the Alpha-2 selectivity Ki α1/Ki α2 came to 6. This compound also yielded a Ki on alpha-1 receptor of 72 nM.

`CN(CCc1ccccc1)CC1c2cc3c(cc2CCN1C)OCO3` (stereo not shown) [Example 7, 6,7-Methylenedioxy-2-methyl-1-((N-methyl-N-(2-phenylethyl)amino)methyl)-1,2,3,4-tetrahydroisoquinoline dihydrochloride]: the results for the Ki on alpha-2 receptor and at alpha-1 receptor were 6.4 nM and 613 nM, respectively. Besides, in the assay with alpha-2 receptor, the Alpha-2 selectivity Ki α1/Ki α2 is 96. Also, the IC50 in the assay with norepinephrine uptake came out at 589 nM; in the assay on serotonin (5-HT) uptake, 6270 nM; with dopamine uptake, 49800 nM.

Take `CN1CCc2c(ccc3c2OCO3)[C@@H]1CN1CC[C@H](c2ccccc2)C1` [Example 8, 5,6-Methylenedioxy-2-methyl-1(R)-(3'(R)-phenylpyrrolidino)methyl-1,2,3,4-tetrahydroisoquinoline dihydrochloride]: the Ki came out at 2.5 nM at alpha-2 receptor and 446 nM at alpha-1 receptor (read-out: Radioligand binding Ki α1, rat liver homogenates, [3H]-prazosin). Besides, in the assay on alpha-2 receptor, the Alpha-2 selectivity Ki α1/Ki α2 was determined as 178. For the same compound, the figures for the IC50 in the assay with norepinephrine uptake, in the assay on serotonin (5-HT) uptake and in the assay on dopamine uptake were 489 nM, 1110 nM and 9300 nM, respectively.

For `CN1CCc2c(ccc3c2OCO3)[C@@H]1CN1CC[C@@H](c2ccccc2)C1` [Example 9, 5,6-Methylenedioxy-2-methyl-1(R)-[3'(S)-phenylpyrrolidino]methyl-1,2,3,4-tetrahydroisoquinoline dihyrochloride], the values for the Ki at alpha-2 receptor and on alpha-1 receptor were 2.1 nM and 168 nM, respectively. In addition, in the assay with alpha-2 receptor, the Alpha-2 selectivity Ki α1/Ki α2 was determined as 80. Moreover, the IC50 worked out at 426 nM with norepinephrine uptake, 1580 nM in the assay on serotonin (5-HT) uptake and 9540 nM in the assay on dopamine uptake.

As to `CN1CCc2c(ccc3c2OCO3)[C@H]1CN1CC[C@H](c2ccccc2)C1` [Example 10, 5,6-Methylenedioxy-2-methyl-1(S)-[3'(R)-phenylpyrrolidino]methyl-1,2,3,4-tetrahydroisoquinoline dihydrochloride], the Ki on alpha-2 receptor was found to be 20.2 nM; at alpha-1 receptor, 374 nM. Further, the Alpha-2 selectivity Ki α1/Ki α2 in the assay on alpha-2 receptor turned out to be 18.5. Further, the IC50 with norepinephrine uptake was 214 nM; in the assay on serotonin (5-HT) uptake, 754 nM; in the assay on dopamine uptake, 11700 nM.

On to `CN1CCc2c(ccc3c2OCO3)[C@H]1CN1CC[C@@H](c2ccccc2)C1` [Example 11, 5,6-Methylenedioxy-2-methyl-1(S)-[3'(S)-phenylpyrrolidino]methyl-1,2,3,4-tetrahydroisoquinoline dihydrochloride], for which the values for the Ki at alpha-2 receptor and at alpha-1 receptor were 32.5 nM and 157 nM, respectively. Besides, in the assay on alpha-2 receptor, the Alpha-2 selectivity Ki α1/Ki α2 worked out at 4.8. Further, the values for the IC50 in the assay with norepinephrine uptake, in the assay on serotonin (5-HT) uptake and in the assay on dopamine uptake were 116 nM, 1700 nM and 4950 nM, respectively.

Take `CN(CCc1ccccc1)C[C@H]1c2ccc3c(c2CCN1C)OCO3` [Example 12, 5,6-Methylenedioxy-2-methyl-1(R)-(((N-methyl-N-phenylethyl)amino)methyl)-1,2,3,4-tetrahydroisoquinoline dihydrochloride]: the Ki at alpha-2 receptor stood at 0.98 nM; at alpha-1 receptor, 1020 nM. The Alpha-2 selectivity Ki α1/Ki α2 with alpha-2 receptor stood at 1040. Moreover, the IC50 in the assay on norepinephrine uptake was 1290 nM; in the assay with serotonin (5-HT) uptake it was 1410 nM; with dopamine uptake it was 25500 nM.

For the compound `CN(CCc1ccccc1)C[C@@H]1c2ccc3c(c2CCN1C)OCO3` [Example 13, 5,6-Methylenedioxy-2-methyl-1(S)-(((N-methyl-N-phenylethyl)amino)methyl-1,2,3,4-tetrahydroisoquinolinedihydrochloride], the figures for the Ki at alpha-2 receptor and at alpha-1 receptor were 7.1 nM and 542 nM, respectively. Moreover, the Alpha-2 selectivity Ki α1/Ki α2 with alpha-2 receptor was 76. For the same compound, the 50% inhibitory concentration (IC50) with norepinephrine uptake came out at 210 nM; in the assay on serotonin (5-HT) uptake, 2890 nM; in the assay with dopamine uptake it was 10600 nM.

`CNCCC(Oc1ccc(C(F)(F)F)cc1)c1ccccc1` (stereo not shown) [Fluoxetine, reference compound]: the values for the IC50 in the assay on norepinephrine uptake and in the assay on dopamine uptake were 1310 nM and 15200 nM, respectively.

For the compound `COC(=O)[C@H]1[C@H]2C[C@H]3c4[nH]c5ccccc5c4CCN3C[C@H]2CC[C@@H]1O` [Rauw*, Rauwolscine, reference compound], in the assay on norepinephrine uptake, the IC50 is above 100 nM. Further, on alpha-1 receptor, affinity was put at a Ki of 450 nM.
